Earlier results in patent US11324772B2, “Periodontal gel composition and method of use” (PRUDENTIX LTD., priority 2017, dated 2022).

pH range in which octenidine is stable and maintains its antimicrobial activity (pH): 1.6-12.2
temperature up to which it can be sterilized by steam in aqueous solutions (steam, aqueous solutions): up to 130 °C
Structure (SMILES): CCCCCCCCN=c1ccn(CCCCCCCCCCn2ccc(=NCCCCCCCC)cc2)cc1 [octenidine, 1,1′,4,4′-tetrahydro-N,N′-dioctyl-1,1′-decametylenedi-(4-pyridylideneamine)]
